One assay concerns the target T1, Coagulation factor XII (Homo sapiens, UniProt P00748).
T1 sequence (P00748 whole entry): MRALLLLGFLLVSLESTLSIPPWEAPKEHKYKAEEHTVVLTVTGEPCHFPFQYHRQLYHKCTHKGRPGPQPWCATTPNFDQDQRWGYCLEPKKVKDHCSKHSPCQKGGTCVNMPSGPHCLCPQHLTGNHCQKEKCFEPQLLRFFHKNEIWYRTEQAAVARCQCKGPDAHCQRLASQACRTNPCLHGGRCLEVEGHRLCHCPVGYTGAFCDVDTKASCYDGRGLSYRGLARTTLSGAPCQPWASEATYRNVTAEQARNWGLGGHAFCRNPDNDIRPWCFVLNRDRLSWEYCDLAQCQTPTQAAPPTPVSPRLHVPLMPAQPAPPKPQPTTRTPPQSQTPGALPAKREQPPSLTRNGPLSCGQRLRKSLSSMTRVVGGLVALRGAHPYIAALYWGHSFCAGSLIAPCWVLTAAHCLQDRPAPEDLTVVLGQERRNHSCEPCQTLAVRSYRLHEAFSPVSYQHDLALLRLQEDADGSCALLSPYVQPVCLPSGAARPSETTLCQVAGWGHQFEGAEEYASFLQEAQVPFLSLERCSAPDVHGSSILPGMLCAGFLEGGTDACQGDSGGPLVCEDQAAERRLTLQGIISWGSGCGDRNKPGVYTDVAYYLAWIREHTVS
Nature of the assay: FXIIa inhibitor potency, concentration-response, biochemical (AID 716). Format: functional.

Assay [1] deals with DNA dC->dU-editing enzyme APOBEC-3A (Homo sapiens, UniProt P31941). Nature of the assay: Dose Response confirmation of small molecule APOBEC3A DNA Deaminase Inhibitors via a fluorescence-based single-stranded DNA deaminase assay. [Related pubchem assays (depositor defined):AID493011, AID493024]. In kind it is functional.
In assay [2] the target is DNA dC->dU-editing enzyme APOBEC-3G (Homo sapiens, UniProt Q9HC16). In kind it is functional.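 Further: Dose-response counterscreen measuring inhibition of APOBEC3G DNA deaminase activity, run while confirming APOBEC3A inhibitors.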
Assay [3] has as its target T2, Epstein-Barr nuclear antigen 1 (Epstein-Barr virus (strain B95-8) (HHV-4) (Human herpesvirus 4), UniProt P03211).
T2 sequence (P03211 whole entry): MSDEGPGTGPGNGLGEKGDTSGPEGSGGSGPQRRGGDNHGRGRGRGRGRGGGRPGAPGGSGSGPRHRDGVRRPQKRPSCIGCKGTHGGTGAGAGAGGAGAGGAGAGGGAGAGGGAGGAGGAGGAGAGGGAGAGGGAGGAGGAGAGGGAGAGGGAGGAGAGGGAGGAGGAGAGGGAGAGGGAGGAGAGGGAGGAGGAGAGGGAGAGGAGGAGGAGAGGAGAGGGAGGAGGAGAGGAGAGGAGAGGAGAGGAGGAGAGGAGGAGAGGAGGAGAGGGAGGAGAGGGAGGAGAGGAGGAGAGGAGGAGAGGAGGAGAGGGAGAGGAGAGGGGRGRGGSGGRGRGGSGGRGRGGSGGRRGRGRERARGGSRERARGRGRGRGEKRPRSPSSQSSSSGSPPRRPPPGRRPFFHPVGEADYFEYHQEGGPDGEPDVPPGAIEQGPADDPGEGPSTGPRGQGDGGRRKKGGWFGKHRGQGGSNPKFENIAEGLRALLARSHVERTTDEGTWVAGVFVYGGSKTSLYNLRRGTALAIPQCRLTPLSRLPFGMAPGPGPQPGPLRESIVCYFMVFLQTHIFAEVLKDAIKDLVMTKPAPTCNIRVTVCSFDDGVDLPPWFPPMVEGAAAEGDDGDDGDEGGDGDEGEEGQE
As to the kind of experiment: EBNA-1 inhibitors, dose response, biochemical, fluorescence polarization, 1536-well (AID 2381).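 Further: fluorescence polarization of a Cy5 DNA probe bound by EBNA-1 protein.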 Also on record: species or system human gammaherpesvirus 4.

The target of assay [4] is T3, Lytic switch protein BZLF1 (Epstein-Barr virus (strain B95-8) (HHV-4) (Human herpesvirus 4), UniProt P03206).
T3 sequence (P03206 whole entry): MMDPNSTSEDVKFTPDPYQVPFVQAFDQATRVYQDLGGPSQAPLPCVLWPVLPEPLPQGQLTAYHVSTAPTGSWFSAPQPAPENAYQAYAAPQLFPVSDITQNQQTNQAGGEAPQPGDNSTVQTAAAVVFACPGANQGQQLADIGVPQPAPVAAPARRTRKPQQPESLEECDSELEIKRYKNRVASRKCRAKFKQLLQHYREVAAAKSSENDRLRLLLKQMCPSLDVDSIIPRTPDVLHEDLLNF
As to the kind of experiment: EBV ZTA inhibitors, dose response, counter-screen for EBNA-1 inhibitor project, biochemical, fluorescence polarization, Epstein-Barr virus, 1536-well (AID 2377).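 Further: fluorescence polarization of Cy5-labelled ZRE DNA probe bound by purified Zta.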 Also on record: species or system human gammaherpesvirus 4.

Assay [5] has as its target Voltage-dependent T-type calcium channel subunit alpha-1H (Homo sapiens, UniProt O95180). Format: functional.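 Further: channel activity triggered by adding a high calcium stimulation buffer.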
A further assay has as its target Prothrombin (Homo sapiens, UniProt P00734). Nature of the assay: Thrombin 1536 HTS Dose Response Confirmation. [Related pubchem assays: 1046 (Thrombin 1536 HTS; hits were confirmed in this assay)]. In kind it is functional.
Assay [6] deals with T4, Carboxy-terminal domain RNA polymerase II polypeptide A small phosphatase 1 (Homo sapiens, UniProt Q9GZU7).
T4 sequence (Q9GZU7 whole entry): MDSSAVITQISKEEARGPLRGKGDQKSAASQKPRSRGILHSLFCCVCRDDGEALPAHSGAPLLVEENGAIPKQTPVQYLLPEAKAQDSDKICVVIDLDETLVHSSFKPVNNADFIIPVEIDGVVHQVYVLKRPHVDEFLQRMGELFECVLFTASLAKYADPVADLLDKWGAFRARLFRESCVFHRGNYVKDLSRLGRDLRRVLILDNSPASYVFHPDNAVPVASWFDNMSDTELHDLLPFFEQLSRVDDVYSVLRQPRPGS
As to the kind of experiment: inhibitors of CTDSP1, concentration-response testing, biochemical assay, absorbance-based, actives from ultra-high-throughput screening (AID 540297). In kind it is functional.

The nature of assay [7]: Luminescence-based counterscreen assay for KLF5 inhibitors: dose response cell-based high throughput screening assay to identify cytotoxic compounds using the IEC-6 intestinal epithelial cell line. [Related pubchem assays: 1700 (Primary screen.), 1834 (Confirmation screen.), 1858 (Summary AID.), 1905 (Counterscreen.)]. In kind it is functional.
In a further assay the test system is HEK293. As to the kind of experiment: inhibitors of LMP1-driven NF-kB reporter, dose response, cell-based, HEK293, luciferase, cherry-pick (AID 588343). In kind it is functional. Conditions: Homo sapiens.

Activity calls are given as the source filed them.

Chain of Voltage-dependent T-type calcium channel subunit alpha-1H (O95180 whole entry): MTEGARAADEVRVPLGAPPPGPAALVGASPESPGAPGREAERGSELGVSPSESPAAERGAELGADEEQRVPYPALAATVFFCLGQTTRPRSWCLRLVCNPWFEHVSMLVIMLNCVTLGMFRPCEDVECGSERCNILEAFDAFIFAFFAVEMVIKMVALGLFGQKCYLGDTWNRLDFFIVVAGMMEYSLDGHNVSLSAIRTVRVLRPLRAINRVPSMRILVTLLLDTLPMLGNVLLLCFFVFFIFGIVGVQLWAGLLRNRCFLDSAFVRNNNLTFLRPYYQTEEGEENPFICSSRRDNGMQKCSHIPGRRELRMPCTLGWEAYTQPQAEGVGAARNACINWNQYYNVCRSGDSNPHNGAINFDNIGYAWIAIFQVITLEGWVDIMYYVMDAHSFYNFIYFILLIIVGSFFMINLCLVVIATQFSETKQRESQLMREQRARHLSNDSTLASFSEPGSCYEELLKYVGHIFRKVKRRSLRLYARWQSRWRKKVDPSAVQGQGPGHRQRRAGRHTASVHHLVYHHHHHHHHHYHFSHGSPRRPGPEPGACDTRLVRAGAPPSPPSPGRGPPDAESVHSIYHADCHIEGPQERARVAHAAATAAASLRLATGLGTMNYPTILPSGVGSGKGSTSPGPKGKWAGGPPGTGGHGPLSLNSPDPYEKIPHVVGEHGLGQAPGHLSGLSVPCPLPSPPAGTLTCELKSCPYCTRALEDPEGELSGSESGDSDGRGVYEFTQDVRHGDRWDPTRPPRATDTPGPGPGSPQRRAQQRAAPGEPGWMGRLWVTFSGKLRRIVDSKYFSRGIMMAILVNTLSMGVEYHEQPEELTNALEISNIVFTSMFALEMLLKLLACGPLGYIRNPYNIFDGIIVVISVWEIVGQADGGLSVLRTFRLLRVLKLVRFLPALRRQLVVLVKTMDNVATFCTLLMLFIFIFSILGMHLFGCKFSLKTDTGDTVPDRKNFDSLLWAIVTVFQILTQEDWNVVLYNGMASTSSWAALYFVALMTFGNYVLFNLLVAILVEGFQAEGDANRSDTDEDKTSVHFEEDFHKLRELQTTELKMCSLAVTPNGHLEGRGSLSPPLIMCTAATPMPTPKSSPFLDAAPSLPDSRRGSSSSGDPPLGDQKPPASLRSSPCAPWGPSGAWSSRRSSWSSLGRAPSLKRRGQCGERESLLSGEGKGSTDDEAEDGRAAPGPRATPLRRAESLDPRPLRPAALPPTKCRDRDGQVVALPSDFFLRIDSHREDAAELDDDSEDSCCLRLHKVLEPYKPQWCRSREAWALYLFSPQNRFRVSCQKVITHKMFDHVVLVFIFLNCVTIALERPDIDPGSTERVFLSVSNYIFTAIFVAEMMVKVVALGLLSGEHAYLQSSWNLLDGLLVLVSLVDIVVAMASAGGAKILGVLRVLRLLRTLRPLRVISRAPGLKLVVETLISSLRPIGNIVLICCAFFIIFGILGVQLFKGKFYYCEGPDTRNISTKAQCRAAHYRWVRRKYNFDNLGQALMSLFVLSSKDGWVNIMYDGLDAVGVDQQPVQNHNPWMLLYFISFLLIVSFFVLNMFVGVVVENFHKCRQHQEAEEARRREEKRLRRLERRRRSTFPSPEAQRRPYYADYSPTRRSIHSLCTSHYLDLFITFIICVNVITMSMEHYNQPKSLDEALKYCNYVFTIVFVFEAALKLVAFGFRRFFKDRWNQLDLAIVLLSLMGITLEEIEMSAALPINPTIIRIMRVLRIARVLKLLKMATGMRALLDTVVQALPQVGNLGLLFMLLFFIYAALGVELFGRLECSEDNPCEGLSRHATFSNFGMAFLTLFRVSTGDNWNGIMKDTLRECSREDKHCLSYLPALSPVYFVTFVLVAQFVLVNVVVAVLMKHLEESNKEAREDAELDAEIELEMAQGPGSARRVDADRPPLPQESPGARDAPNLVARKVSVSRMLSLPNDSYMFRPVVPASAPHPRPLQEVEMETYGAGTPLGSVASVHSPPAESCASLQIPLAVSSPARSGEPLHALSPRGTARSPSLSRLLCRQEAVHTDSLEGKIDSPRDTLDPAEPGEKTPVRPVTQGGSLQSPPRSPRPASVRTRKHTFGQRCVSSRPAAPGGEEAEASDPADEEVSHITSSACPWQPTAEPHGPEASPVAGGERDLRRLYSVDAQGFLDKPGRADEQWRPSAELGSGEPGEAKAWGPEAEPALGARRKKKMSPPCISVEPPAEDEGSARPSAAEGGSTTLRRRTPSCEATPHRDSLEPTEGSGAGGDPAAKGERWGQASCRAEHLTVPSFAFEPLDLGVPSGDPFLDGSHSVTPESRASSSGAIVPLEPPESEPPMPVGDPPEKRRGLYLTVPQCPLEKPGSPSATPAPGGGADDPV
Chain of DNA dC->dU-editing enzyme APOBEC-3A (P31941 whole entry): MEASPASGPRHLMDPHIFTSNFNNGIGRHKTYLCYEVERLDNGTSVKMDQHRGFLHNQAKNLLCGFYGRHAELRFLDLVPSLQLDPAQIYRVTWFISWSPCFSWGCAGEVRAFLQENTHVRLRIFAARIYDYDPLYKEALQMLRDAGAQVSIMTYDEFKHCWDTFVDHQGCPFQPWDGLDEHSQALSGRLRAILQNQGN
Chain of DNA dC->dU-editing enzyme APOBEC-3G (Q9HC16 whole entry): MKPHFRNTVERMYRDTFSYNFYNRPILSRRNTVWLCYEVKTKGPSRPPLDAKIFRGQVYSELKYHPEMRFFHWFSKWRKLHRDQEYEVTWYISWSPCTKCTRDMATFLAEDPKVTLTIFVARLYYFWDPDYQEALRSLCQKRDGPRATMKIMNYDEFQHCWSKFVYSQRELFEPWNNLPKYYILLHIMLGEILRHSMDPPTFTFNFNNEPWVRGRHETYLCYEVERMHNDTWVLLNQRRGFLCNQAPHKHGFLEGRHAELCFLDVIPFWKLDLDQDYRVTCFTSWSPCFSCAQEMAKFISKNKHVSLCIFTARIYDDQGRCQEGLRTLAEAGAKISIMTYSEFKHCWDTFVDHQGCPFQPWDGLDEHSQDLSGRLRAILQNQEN

As for `COc1ccccc1/N=C/c1nc(-c2ccccc2)oc1OC(C)=O`, the IC50 on Coagulation factor XII is 48.8 µM (active).
The same measure, in the same setting: next, `C=CCNc1ncnc2c1[nH]c1ccc(C)cc12`: > 50 µM (inactive).
In the case of `Cc1cc(=O)oc2c1c(C)nn2-c1nn[nH]n1`, the values for the IC50 in [1] and in [2] were 1.76 µM (active) and 4.36 µM (active), respectively.
For the molecule `CC1=CC(=C(C#N)C#N)C=C(C)N1CCN1CCN(C(=O)Nc2ccc(Cl)c(Cl)c2)CC1`, the IC50 in [3] is 16.3 µM (not active); in assay [4] it was > 111 µM (not active).
Take `O=C(CSc1nnnn1C1CCCCC1)N1c2ccccc2Sc2ccccc21`: the EC50 in [5] was 7.42 µM (active).
Turning to `Cc1sc2ncnc(SCC(=O)NNC(=O)COc3cccc4ccccc34)c2c1C`, the IC50 in assay [3] was 2.02 µM (active); in [4], > 111 µM (not active).
Regarding `Cn1cc(C(=O)c2ccc(Cl)cc2Cl)cc1C(=O)NN=C(N)COc1ccc(F)cc1`, the IC50 at Prothrombin is 2.13 µM (active). Also, in [5], the EC50 is 2.48 µM (active).
With `CCC1=C/C(=C\c2ccc3c(c2)OCO3)C(=O)S1`, at Coagulation factor XII, the IC50 was > 50 µM (inactive).
Regarding `CCc1ccc(-c2nc(CN3CCC(C(=O)NCc4ccc(F)cc4)CC3)c(C)o2)cc1`, the 50% effective concentration (EC50) in [5] was 4.46 µM (active).
On to `CCCc1nc(-c2cc3cc(C)ccc3[nH]c2=O)no1`, for which the IC50 was 3.04 µM (active) in assay [1], 2.41 µM (active) in assay [2] and 12.8 µM (active) in assay [6].
In the case of `CC12CCC(C[N+](C)(C)C1)C2(C)C` (stereo not drawn), the IC50 in assay [1] was 2.69 µM (active); in [2], 4.71 µM (active); in assay [6] it was 5.62 µM (active).
With `CCOc1cc(Br)cc(/C=N/NC(=O)c2cccnc2)c1O`, in assay [7], the IC50 is 16.8 µM (not active). The AC50 in the assay on HEK293 was 21.5 µM (active).
As to `O=[N+]([O-])c1cccc(/C=N/Nc2nc(NCc3ccccc3)nc(N3CCOCC3)n2)c1`, the values for the half-maximal inhibitory concentration (IC50) in assay [3] and in assay [4] were 3.45 µM (active) and > 111 µM (not active), respectively.

The values above are taken from ChEMBL document CHEMBL1201862, “PubChem BioAssay data set” (2004).
